# According to PubChem BioAssay (NCI):
#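 Growth conditions: 96-well plates. Treatment: test compound, 48 hours, 5 concentrations. Analysis: linear interpolation between bracketing concentrations; unreached endpoints set to highest concentration. GI50 = concentration required for 50% inhibition of growth. The concentration for full growth arrest is given as TGI.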
# How the values were obtained:
# Assay in all cases: NCI-60 cell line screen, 48 h
# [1] = test system: A549 NSCLC
# [2] = test system: COLO 205 colon
# [3] = test system: HOP-92 NSCLC
# [4] = test system: MDA-MB-435
# [5] = test system: NCI-H522 lung
# [6] = test system: OVCAR-8 ovarian
# [7] = test system: RXF 393 renal
# [8] = test system: SF-268 CNS
# [9] = test system: SK-MEL-2 melanoma
# [10] = test system: SK-MEL-28 melanoma
Compound,GI50 [1] [µM],TGI [1] [µM],GI50 [2] [µM],TGI [2] [µM],GI50 [3] [µM],TGI [3] [µM],GI50 [4] [µM],TGI [4] [µM],GI50 [5] [µM],TGI [5] [µM],GI50 [6] [µM],TGI [6] [µM],GI50 [7] [µM],TGI [7] [µM],GI50 [8] [µM],TGI [8] [µM],GI50 [9] [µM],TGI [9] [µM],GI50 [10] [µM],TGI [10] [µM]
N=C1C(c2nc3ccccc3c(=O)[nH]2)=C(O)CN1c1cccc(Cl)c1,5.36,> 100,5.07,> 100,> 100,> 100,0.948,3.8,4.57,> 100,5.35,> 100,2.6,> 27.3,8.78,> 100,> 100,> 100,> 22.3,> 100
Cn1cc(Nc2nccc(-c3ccc4c(c3)CN(C3COC3)CC[C@H]4NC(=O)c3cn(C(C)(C)C)nn3)n2)cn1,86.8,> 100,30.6,> 100,16,89.7,42.3,> 100,96.1,> 100,> 100,> 100,26.6,> 100,> 100,> 100,> 100,> 100,46.9,> 100
O=C1NC(=NCCc2ccccc2F)S/C1=C\c1ccc2ncccc2c1,5.39,> 25,6.54,> 25,7.84,> 25,1.57,> 16.8,4.74,16.9,9.65,> 25,7.18,> 25,7.76,> 25,6.16,14.5,11.7,> 25
Cc1cc2c(C(C)C)c(O)c(O)c(/C=N/O)c2c(O)c1-c1c(C)cc2c(C(C)C)c(O)c(O)c(/C=N/O)c2c1O,2.69,12.1,2.88,9.72,2.89,13.5,2.78,12.1,1.74,5.47,2.94,13.2,1.49,6.36,1.54,11.4,3.47,13.8,1.84,6.8
Nc1nc(N)c2c(Cl)c(CNc3ccc(Cl)c(Cl)c3)ccc2n1,–,14.5,–,13,–,9.36,–,17.5,–,9.56,–,16,–,7.26,–,15.7,–,16.7,–,18.7
CC(=O)NC(CCc1ccc(Cl)c(Cl)c1)c1cccc(O)c(=O)c1 (stereo not given),0.527,11.5,0.363,18.6,1.93,15.7,1.07,18.9,0.488,11.9,0.346,13.1,0.722,14.9,0.517,14.7,2.8,17.1,1.07,12.3
CC(C)(Oc1cccc(N2CCC[C@@H](C(=O)N(Cc3ccc(-c4cn[nH]c4)cc3)C3CC3)C2)c1)C(=O)N1CCNCC1,14.1,32.2,5.91,20.1,9.9,23.8,13.8,27.2,12.3,26,18.6,42.7,1.85,8.26,10.7,24.7,14.3,28,13.1,26.1
C=C1CC[C@@](C)(c2cc(Br)c(C)cc2OC(C)=O)[C@H]1C,12.3,26.5,17.6,31.3,3.49,16.2,13.3,27.5,15,31.4,13.2,27.8,14.8,32.5,13.2,28.3,13.8,32.4,11.7,24
COC(=O)COc1ccccc1/C=C1/N=C(c2ccccc2)N(c2c(C)n(C)n(-c3ccccc3)c2=O)C1=O,> 100,> 100,> 100,> 100,> 100,> 100,> 100,> 100,20,48,> 100,> 100,> 100,> 100,> 100,> 100,25,56.4,> 100,> 100
COc1cc(C(=O)/C=C/c2cccnc2Nc2ccc(Cl)cc2)cc(OC)c1OC,1.63,3.6,1.83,3.47,0.519,2.14,1.49,3.36,1.46,3,1.63,4.31,1.26,2.61,1.72,3.19,2.01,4.11,1.72,3.12
Cc1ccc2c(-c3ccnc(Nc4cccc(C(F)(F)F)c4)n3)c(-c3ccccc3)nn2n1,6.18,> 25,4.04,> 25,> 25,> 25,6.77,> 25,5.73,> 14.7,9.27,> 25,2.95,8.57,> 15.2,> 25,6.28,14.3,> 15.4,> 25
CCc1nc(N)nc(N)c1-c1ccc(N2CCNCC2)c([N+](=O)[O-])c1,–,> 100,–,40.5,–,> 100,–,> 100,–,> 100,–,> 100,–,> 100,–,> 37.5,–,> 90.5,–,> 100
NC(=O)NC(=O)Nc1ccc(Br)cc1,–,> 100,–,> 28.8,–,> 100,–,> 22,–,> 40,–,> 34.6,–,> 100,–,> 16.5,–,> 20.7,–,> 17.7
